Experimental data as given in ChEMBL document CHEMBL2424548, “Substrate-based peptidomimetic inhibitors of the Murray Valley encephalitis virus NS2B/NS3 serine protease: a P1-P4 SAR study” (Eur J Med Chem, 2013).
pIC50, pKi: −log10 of the molar value. Non-standard residues stand in square brackets, D forms with d. Residues, ends and D or L forms follow the SMILES beside them. *: point of attachment. hArg = N=C(N)NCCCC[C@H](N)C(=O)O; Agmatine = N=C(N)NCCCCN*; Nle = CCCC[C@H](N)C(=O)O

System: not listed separately
Test: Chemical stability of the compound at 100 uM after 2 hrs in presence of MVEV NS2B/NS3 protease
Assay type: physicochemical

Question: Which Stability does the source give for `N=C(N)N1CCC(CNC(=O)[C@H](CCCCN)NC(=O)[C@H](CCCCN)NC(=O)Cc2cccc(-c3ccccc3)c2)CC1` here?
Answer: Stable

Target: Prothrombin (Homo sapiens, UniProt P00734)
Test: Inhibition of human thrombin after 1 hr by fluorescence assay

Question: With `N=C(N)N1CCC(CNC(=O)[C@H](CCCCN)NC(=O)[C@H](CCCCN)NC(=O)Cc2cccc(-c3ccccc3)c2)CC1` as the molecule, how does the pIC50 read?
Answer: < 4.00

System: not listed separately
Test: Inhibition of Murray Valley encephalitis virus NS2B/NS3 protease using Pyr-RTKR-AMC as substrate after 1 hr by fluorescence assay

Question: With `CC(=O)N[C@@H](CCCCN)C(=O)N[C@@H](CCCCN)C(=O)NCCCCNC(=N)N` as the molecule, how does the pIC50 read?
Answer: 4.77

Question: With `N=C(N)NCCCCNC(=O)[C@H](CCCCN)NC(=O)[C@H](CCCCN)NC(=O)Cc1ccc(-c2ccccc2)cc1` as the molecule, how does the pIC50 read?
Answer: 4.74

Question: With `N=C(N)NCCCCNC(=O)[C@H](CCCCN)NC(=O)[C@H](CCCCN)NC(=O)Cc1cccc(-c2ccccc2)c1` as the molecule, how does the pIC50 read?
Answer: 5.04

Question: With `N=C(N)NCCCCNC(=O)[C@H](CCCCN)NC(=O)[C@@H](N)CCCCN` as the molecule, how does the pIC50 read?
Answer: < 4.00

Question: With `CCC(=O)N[C@@H](CCCCN)C(=O)N[C@@H](CCCCN)C(=O)NCCCCNC(=N)N` as the molecule, how does the pIC50 read?
Answer: 4.31

Question: With `CCCC(=O)N[C@@H](CCCCN)C(=O)N[C@@H](CCCCN)C(=O)NCCCCNC(=N)N` as the molecule, how does the pIC50 read?
Answer: 4.29

Question: With `CC(C)CC(=O)N[C@@H](CCCCN)C(=O)N[C@@H](CCCCN)C(=O)NCCCCNC(=N)N` as the molecule, how does the pIC50 read?
Answer: 4.16

Question: With `CC(C)C(=O)N[C@@H](CCCCN)C(=O)N[C@@H](CCCCN)C(=O)NCCCCNC(=N)N` as the molecule, how does the pIC50 read?
Answer: 4.09

Question: With `CC(C)(C)C(=O)N[C@@H](CCCCN)C(=O)N[C@@H](CCCCN)C(=O)NCCCCNC(=N)N` as the molecule, how does the pIC50 read?
Answer: < 4.00

Question: With `N=C(N)NCCCCNC(=O)[C@H](CCCCN)NC(=O)[C@H](CCCCN)NC(=O)c1ccccc1` as the molecule, how does the pIC50 read?
Answer: 4.49

Question: With `N=C(N)NCCCCNC(=O)[C@H](CCCCN)NC(=O)[C@H](CCCCN)NC(=O)c1cccc2ccccc12` as the molecule, how does the pIC50 read?
Answer: 4.55

Question: With `N=C(N)NCCCCNC(=O)[C@H](CCCCN)NC(=O)[C@H](CCCCN)NC(=O)c1ccc2ccccc2c1` as the molecule, how does the pIC50 read?
Answer: 4.62

Question: With `N=C(N)NCCCCNC(=O)[C@H](CCCCN)NC(=O)[C@H](CCCCN)NC(=O)Cc1ccccc1` as the molecule, how does the pIC50 read?
Answer: 4.79

Question: With `N=C(N)NCCCCNC(=O)[C@H](CCCCN)NC(=O)[C@H](CCCCN)NC(=O)CCc1ccccc1` as the molecule, how does the pIC50 read?
Answer: 4.51

Question: With `N=C(N)NCCCCNC(=O)[C@H](CCCCN)NC(=O)[C@H](CCCCN)NC(=O)Cc1ccccc1Cl` as the molecule, how does the pIC50 read?
Answer: 4.27

Question: With `N=C(N)NCCCCNC(=O)[C@H](CCCCN)NC(=O)[C@H](CCCCN)NC(=O)Cc1cccc(Cl)c1` as the molecule, how does the pIC50 read?
Answer: 4.27

Question: With `N=C(N)NCCCCNC(=O)[C@H](CCCCN)NC(=O)[C@H](CCCCN)NC(=O)Cc1ccc(Cl)cc1` as the molecule, how does the pIC50 read?
Answer: 4.85

Question: With `Cc1ccccc1CC(=O)N[C@@H](CCCCN)C(=O)N[C@@H](CCCCN)C(=O)NCCCCNC(=N)N` as the molecule, how does the pIC50 read?
Answer: 4.22

Question: With `Cc1cccc(CC(=O)N[C@@H](CCCCN)C(=O)N[C@@H](CCCCN)C(=O)NCCCCNC(=N)N)c1` as the molecule, how does the pIC50 read?
Answer: 4.80

Question: With `Cc1ccc(CC(=O)N[C@@H](CCCCN)C(=O)N[C@@H](CCCCN)C(=O)NCCCCNC(=N)N)cc1` as the molecule, how does the pIC50 read?
Answer: 4.82

Question: With `N=C(N)N1CCC(CNC(=O)[C@H](CCCCN)NC(=O)[C@H](CCCCN)NC(=O)Cc2cccc(-c3ccccc3)c2)CC1` as the molecule, how does the pIC50 read?
Answer: 5.31

Question: With `CCCCNC(=O)[C@H](CCCCN)NC(=O)[C@H](CCCCN)NC(C)=O` as the molecule, how does the pIC50 read?
Answer: < 4.00

Question: With `CC(=O)N[C@@H](CCCCN)C(=O)N[C@@H](CCCCN)C(=O)NCCCCNC(N)=O` as the molecule, how does the pIC50 read?
Answer: < 4.00

Question: With `CC(=O)N[C@@H](CCCCN)C(=O)N[C@@H](CCCCN)C(=O)NCCCCN` as the molecule, how does the pIC50 read?
Answer: < 4.00

Question: With `CC(=O)N[C@@H](CCCCN)C(=O)N[C@@H](CCCCN)C(=O)NCCCCCN` as the molecule, how does the pIC50 read?
Answer: < 4.00

Question: With `CC(=O)N[C@@H](CCCCN)C(=O)N[C@@H](CCCCN)C(=O)NCCCCCCN` as the molecule, how does the pIC50 read?
Answer: < 4.00

Question: With `CC(=O)N[C@@H](CCCCN)C(=O)N[C@@H](CCCCN)C(=O)NCCCNC(=N)N` as the molecule, how does the pIC50 read?
Answer: < 4.00

Question: With `CC(=O)N[C@@H](CCCCN)C(=O)N[C@@H](CCCCN)C(=O)NCCCCCNC(=N)N` as the molecule, how does the pIC50 read?
Answer: 4.12

Question: With `CC(=O)N[C@@H](CCCCN)C(=O)N[C@@H](CCCCN)C(=O)NC/C=C/CNC(=N)N` as the molecule, how does the pIC50 read?
Answer: 4.23

Question: With `CC(=O)N[C@@H](CCCCN)C(=O)N[C@@H](CCCCN)C(=O)NC/C=C\CNC(=N)N` as the molecule, how does the pIC50 read?
Answer: < 4.00

Question: With `CC(=O)N[C@@H](CCCCN)C(=O)N[C@@H](CCCCN)C(=O)NCC#CCNC(=N)N` as the molecule, how does the pIC50 read?
Answer: 4.90

Question: With `CC(=O)N[C@@H](CCCCN)C(=O)N[C@@H](CCCCN)C(=O)NCC1CCN(C(=N)N)CC1` as the molecule, how does the pIC50 read?
Answer: 5.04

Question: With `CC(=O)N[C@@H](CCCCN)C(=O)N[C@@H](CCCCN)C(=O)N[C@H]1CC[C@@H](NC(=N)N)CC1` as the molecule, how does the pIC50 read?
Answer: < 4.00

Question: With `CC(=O)N[C@@H](CCCCN)C(=O)N[C@@H](CCCCN)C(=O)NN` as the molecule, how does the pIC50 read?
Answer: < 4.00

Question: With `CCCC[C@H](NC(=O)[C@H](CCCCN)NC(C)=O)C(=O)NCCCCNC(=N)N` (Ac-Lys-[Nle]-Agmatine) as the molecule, how does the pIC50 read?
Answer: < 4.00

Question: With `CC(=O)N[C@@H](CCCCN)C(=O)N[C@@H](CCCCNC(=N)N)C(=O)NCCCCNC(=N)N` (Ac-Lys-[hArg]-Agmatine) as the molecule, how does the pIC50 read?
Answer: 4.10

Question: With `CCCC[C@H](NC(C)=O)C(=O)N[C@@H](CCCCN)C(=O)NCCCCNC(=N)N` (Ac-[Nle]-Lys-Agmatine) as the molecule, how does the pIC50 read?
Answer: 4.34

Question: With `CC(=O)N[C@@H](CCCCNC(=N)N)C(=O)N[C@@H](CCCCN)C(=O)NCCCCNC(=N)N` (Ac-[hArg]-Lys-Agmatine) as the molecule, how does the pIC50 read?
Answer: 4.50

System: not listed separately
Test: Competitive inhibition of Murray Valley encephalitis virus NS2B/NS3 protease using Pyr-RTKR-AMC as substrate after 1 hr by Lineweaver-Burk plot analysis

Question: With `N=C(N)N1CCC(CNC(=O)[C@H](CCCCN)NC(=O)[C@H](CCCCN)NC(=O)Cc2cccc(-c3ccccc3)c2)CC1` as the molecule, how does the pKi read?
Answer: 5.60
